According to US5182273A, “Spirocyclic N, O derivatives of cyclotriphosphazenes and their use in therapy” (Pierre Fabre Medicament, priority 1990, dated 1993):
pIC50: −log10 of the molar value.

What follows are compounds tested on mouse L1210 leukemic cells (assay: In vitro cytotoxicity, inhibition of cell growth (cell counter)). Conditions: read-out: IC50 (concentration for which 50% inhibition of cell growth is obtained).
Format: cell-based
Experimental: The cytotoxic activity in vitro was evaluated by the determination of the IC50 (concentration for which 50% inhibition of cell growth is obtained) on mouse L1210 leukemic cells.
The IC50 is evaluated by means of a cell counter.
`C1CNP2(=NP(N3CC3)(N3CC3)=NP(N3CC3)(N3CC3)=N2)OC1` (centres unmarked) [Compound 3, 2,2,4,4-Tetra-1-aziridinyl-2,2,4,4-tetrahydro-7-oxa-1,3,5,11-tetraaza-2,4,6λ^5-triphosphaspiro-[5,5]-undeca-1,3,5-triene] showed a pIC50 of 5.64.
For `C1COP2(=NP(N3CC3)(N3CC3)=NP(N3CC3)(N3CC3)=N2)N1` (centres unmarked) [Compound 2, 7,7,9,9-Tetra-1-aziridinyl-7,7,9,9-tetrahydro-1-oxa-4,6,8,10-tetraaza-5λ^5,7,9-triphosphaspiro-[4,5]-deca-5,7,9-triene], the pIC50 was 5.06.
Compound `C1CCC(N2CCCOP23=NP(N2CC2)(N2CC2)=NP(N2CC2)(N2CC2)=N3)CC1` (centres unmarked) [Compound 4, 11-Cyclohexyl-2,2,4,4-tetra-1-aziridinyl-2,2,4,4-tetrahydro-7-oxa-1,3,5,11-tetraaza-2,4,6λ^5-triphosphaspiro-[5,5]-undeca-1,3,5-triene] has a pIC50 of 5.00.
`c1ccc(CCN2CCCOP23=NP(N2CC2)(N2CC2)=NP(N2CC2)(N2CC2)=N3)cc1` (centres unmarked) [Compound 8, 11-(2-Phenylethyl)-2,2,4,4-tetra-1-aziridinyl-2,2,4,4-tetrahydro-7-oxa-1,3,5,11-tetraaza-2,4,6λ^5-triphosphaspiro-[5,5]-undeca-1,3,5-triene] was tested, and the pIC50 was 5.19.
Work on `CN1CCOP12=NP(N1CC1)(N1CC1)=NP(N1CC1)(N1CC1)=N2` (centres unmarked) [Compound 1, 4-methyl-7,7,9,9-tetra-1-aziridinyl-7,7,9,9-tetrahydro-1-oxa-4,6,8,10-tetraaza-5λ^5-7,9-triphosphaspiro-[4,5]-deca-5,7,9-triene] yielded a pIC50 of 5.05.
With `c1ccc(CN2CCOP23=NP(N2CC2)(N2CC2)=NP(N2CC2)(N2CC2)=N3)cc1` (centres unmarked) [Compound 5, 4-Phenylmethyl-7,7,9,9-tetra-1-aziridinyl-7,7,9,9-tetrahydro-1-oxa-4,6,8,10-tetraaza-5λ^5,7,9-triphosphaspiro-[4,5]-deca-5,7,9-triene] the pIC50 was 5.24.
`c1ccc(CN2CCCOP23=NP(N2CC2)(N2CC2)=NP(N2CC2)(N2CC2)=N3)cc1` (centres unmarked) [Compound 6, 11-Phenylmethyl-2,2,4,4-tetra-1-aziridinyl-2,2,4,4-tetrahydro-7-oxa-1,3,5,11-tetraaza-2,4,6λ^5-triphosphaspiro-[5,5]-undeca-1,3,5-triene] showed a pIC50 of 5.24.
Compound `c1ccc(CCN2CCOP23=NP(N2CC2)(N2CC2)=NP(N2CC2)(N2CC2)=N3)cc1` (centres unmarked) [Compound 7, 4-(2-Phenylethyl)-7,7,9,9-tetra-1-aziridinyl-7,7,9,9-tetrahydro-1-oxa-4,6,8,10-tetraaza-5λ^5,7,9-triphosphaspiro-[4,5]-deca-5,7,9-triene] has a pIC50 of 5.11.
